Laboratory results as given in US10391095B2, “DNA-PK inhibitors” (Vertex Pharmaceuticals Incorporated, priority 2012, dated 2019).

target: DNA-PK (Homo sapiens, UniProt P78527); assay: DNA-PK inhibition assay (radiometric, 33P-ATP); assay type: biochemical; settings: 100 μM ATP, competitive tight-binding fit
Summary of the method: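 33P transfer from 100 µM ATP to a DNA-PK peptide (0.8 mg/mL) is measured after 45 min, using about 6 nM enzyme activated by 10 µg/mL sheared dsDNA (HEPES pH 7.5, MgCl2, DTT). Filter-bound counts fitted to a competitive tight-binding inhibition model give Ki.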

Ki [nM]	SMILES
< 30	CNC(=O)c1ccnc2c([C@H](C)CNc3cc(-c4cnc(C(C)(C)O)c(F)c4)ncn3)cccc12 [Compound 822]
< 30	CNC(=O)c1ccnc2c([C@H](C)CNc3cc(-c4ccc(C(=O)O)s4)ncn3)cccc12 [Compound 775]
< 30	CNC(=O)c1ccnc2c([C@H](C)CNc3cc(-c4ccnc(C(F)(F)F)c4)ncn3)cccc12 [Compound 812]
< 30	CNC(=O)c1c(F)cnc2c([C@H](C)CNc3cc(-c4ccc(OC)nc4)ncn3)cccc12 [Compound 900]
< 30	CCOc1cc(-c2cc(NC[C@@H](C)c3cccc4c(C(=O)NC)ccnc34)ncn2)ccn1 [Compound 962]
< 30	CNC(=O)c1ccnc2c([C@H](C)CNc3cc(-c4ccc5c(c4)CNCC5)ncn3)cccc12 [Compound 801]
< 30	CNC(=O)c1ccnc2c([C@H](C)CNc3cc(-c4cnc5c(c4)CN(C(C)=O)CC5)ncn3)cccc12 [Compound 815]
< 30	CNC(=O)c1ccnc2c([C@H](C)CNc3cc(-c4ccc(OC5COC5)cc4)ncn3)cccc12 [Compound 748]
< 30	CNC(=O)c1ccnc2c([C@H](C)CNc3cc(-c4cncc(S(C)(=O)=O)c4)ncn3)cccc12 [Compound 877]
< 30	CNC(=O)c1c(F)cnc2c([C@H](C)CNc3cc(-c4cncc(C#N)c4)ncn3)cccc12 [Compound 963]
< 30	CNC(=O)c1ccnc2c([C@H](C)CNc3cc(-c4ccc(C(C)(C)O)nc4)ncn3)ccc(F)c12 [Compound 865]
< 30	[2H]c1nc(C)nc([2H])c1-c1cc(NC[C@@H](C)c2cccc3c(C(=O)NC)c(F)cnc23)ncn1 [Compound 862]
< 30	CNC(=O)c1ccnc2c([C@H](C)CNc3cc(-c4ccc(N5CCOC(C)C5)nc4)ncn3)cccc12 (single isomer, unassigned) [Compound 713]
< 30	CNC(=O)c1ccnc2c([C@H](C)CNc3cc(-c4ccnc(OC)c4)ncn3)cccc12 [Compound 869]
< 30	CCOc1ccc(-c2cc(NC[C@@H](C)c3ccc(F)c4c(C(=O)NC)ccnc34)ncn2)cn1 [Compound 934]
< 30	CNC(=O)c1ccnc2c([C@H](C)CNc3cc(-c4ccc(NCCN5CCCC5=O)nc4)ncn3)cccc12 [Compound 703]
< 30	CNC(=O)c1ccnc2c([C@H](C)CNc3cc(-c4cnc(C)c(F)c4)ncn3)cccc12 [Compound 972]
< 30	CNC(=O)c1ccnc2c([C@H](C)CNc3cc(-c4ccc(C5(C#N)CC5)cc4)ncn3)cccc12 [Compound 681]
< 30	CNC(=O)c1ncnc2c([C@H](C)CNc3cc(-c4cnc(C)nc4)ncn3)cccc12 [Compound 976]
< 30	CNC(=O)c1ccnc2c([C@H](C)CNc3cc(N4CCn5ccnc5C4)ncn3)cccc12 [Compound 741]
< 30	CNC(=O)c1ccnc2c([C@H](C)CNc3cc(-c4ccc(OC)cc4)ncn3)cccc12 [Compound 682]
< 30	CNC(=O)c1ccnc2c([C@H](C)CNc3cc(-c4cnc(OC5COC5)nc4)ncn3)cccc12 [Compound 666]
< 30	CNC(=O)c1ccnc2c([C@H](C)CNc3cc(-c4ccc(O)nc4)ncn3)cccc12 [Compound 799]
< 30	CNC(=O)c1ccnc2c([C@H](C)CNc3cc(-c4ccc(C(=O)NCCO)cc4)ncn3)cccc12 [Compound 753]
< 30	CNC(=O)c1ccnc2c([C@H](C)CNc3cc(-c4ccc(NCCCO)nc4)ncn3)cccc12 [Compound 715]
< 30	CNC(=O)c1ccnc2c([C@H](C)CNc3cc(-c4cnc(OC)c(C)c4)ncn3)cccc12 [Compound 945]
< 30	CNC(=O)c1ccnc2c([C@H](C)CNc3cc(-c4cnc(OC)s4)ncn3)cccc12 [Compound 779]
< 30	CNC(=O)c1ccnc2c([C@H](C)CNc3cc(-c4ccc(C5CC5)nc4)ncn3)cccc12 [Compound 847]
< 30	CCOc1ncc(-c2cc(NC[C@@H](C)c3cccc4c(C(=O)NC)ccnc34)ncn2)cc1C [Compound 950]
< 30	CNC(=O)c1ccnc2c([C@H](C)CNc3cc(-c4ccc5c(c4)N(C)CCO5)ncn3)cccc12 [Compound 864]

Second part, the compound before the results:

SMILES	Ki [nM]
CNC(=O)c1ccnc2c([C@H](C)CNc3cc(-c4cnc(C)nc4)ncn3)cccc12 [Compound 578, (S)—N-methyl-8-(1-((2′-methyl-[4,5′-bipyrimidin]-6-yl)amino)propan-2-yl)quinoline-4-carboxamide]	< 30
CCNC(=O)Cn1ncc2cc(-c3cc(NC[C@@H](C)c4ccccc4OC)ncn3)cnc21 [Compound 147]	< 30
Cc1ccc(-c2cc(NC[C@@H](C)c3ccnc4cccnc34)ncn2)cn1 [Compound 495]	< 30
COc1ccccc1[C@H](C)CNc1cc(-c2ccc(N(C)C3CCN(C)CC3)nc2)ncn1 [Compound 223]	< 30
COc1ccccc1[C@H](C)CNc1cc(-c2ccc(C)nc2)ncn1 [Compound 55]	< 30
CNC(=O)c1ccc([C@H](C)CNc2cc(-c3ccc(Nc4ccncc4)nc3)ncn2)c(OC)c1 [Compound 396]	< 30
C[C@H](CNc1cc(-c2ccc(N3CCOCC3)nc2)ncn1)c1ccnc2c1OCCO2 [Compound 522]	< 30
COc1ccccc1[C@H](C)CNc1cc(-c2ccc(N(C)C)nc2)ncn1 [Compound 255]	< 30
COc1ccccc1[C@H](C)CNc1cc(-c2ccc(N3CCCC3)nc2)ncn1 [Compound 84]	< 30
COc1cc(C(N)=O)ccc1C(C)CNc1cc(-c2ccc(C)nc2)ncn1 (stereo not shown) [Compound 122]	< 30
COc1ccccc1[C@H](C)CNc1cc(-c2ccnc(NCC(O)CO)c2)ncn1 (single isomer, unassigned) [Compound 208]	< 30
CNC(=O)c1ccc([C@H](C)CNc2cc(-c3ccc(N4CC=CCC4)nc3)ncn2)c(OC)c1 [Compound 366]	< 30
CNC(=O)c1ccnc2c([C@H](C)CNc3cc(-c4ccc(N(C)C5CCN(C)CC5)nc4)ncn3)cccc12 [Compound 634]	< 30
CNC(=O)c1ccc([C@H](C)CNc2cc(-c3cnc4c(ccn4CCO)c3)ncn2)c(OC)c1 [Compound 269]	< 30
Cc1ccc(-c2cc(NC[C@@H](C)c3ccnc4c3OCC4(C)C)ncn2)cn1 [Compound 583]	< 30
Cc1ccc(-c2cc(NCC(C)c3cccc4nccnc34)ncn2)cn1 (stereo not shown) [Compound 332]	< 30
CNC(=O)c1ccnc2c([C@H](C)CNc3cc(-c4ccc(C(F)(F)F)nc4)ncn3)cccc12 [Compound 649]	< 30
CNC(=O)c1ccc(C(C)CNc2cc(-c3cnc4c(ccn4C)c3)ncn2)c(OC)c1 (stereo not shown) [Compound 189]	< 30

SMILES	Ki [nM]
COc1cc(C(=O)Nc2ccccc2)ccc1C(C)CNc1cc(-c2ccc(C)nc2)ncn1 (stereo not shown) [Compound 377]	< 30
Cc1ccc(-c2cc(NCC(C)c3cccc4c3OCC(=O)N4)ncn2)cn1 (stereo not shown) [Compound 435]	< 30
COc1cc(C(=O)NC2CCCC2)ccc1C(C)CNc1cc(-c2ccc(C)nc2)ncn1 (stereo not shown) [Compound 159]	< 30
COc1ccsc1C(C)CNc1cc(-c2cnc3c(cnn3CCO)c2)ncn1 (stereo not shown) [Compound 233]	< 30
Cc1ccc(-c2cc(NCC(C)c3ccc(F)c4ccoc34)ncn2)cn1 (stereo not shown) [Compound 477]	< 30
CNC(=O)c1ccc([C@H](C)CNc2cc(-c3ccc4c(c3)CNC4=O)ncn2)c(OC)c1 [Compound 312]	< 30
C[C@H](CNc1cc(-c2cnc(NCCO)nc2)ncn1)c1ccnc2c1OCCO2 [Compound 457]	< 30
CNC(=O)c1ccc([C@H](C)CNc2cc(-c3ccc(N4CCCC4)nc3)ncn2)c(OC)c1 [Compound 363]	< 30
Cc1ccc(-c2cc(NC[C@@H](C)c3ccnc4cc(C)oc34)ncn2)cn1 [Compound 563]	< 30
CNC(=O)c1ccc(C(C)CNc2cc(-c3ccc(OC(C)C)nc3)ncn2)c(OC)c1 (stereo not shown) [Compound 324]	< 30
CNC(=O)c1ccnc2c([C@H](C)CNc3cc(-c4ccc(C)nc4)ncn3)cccc12 [Compound 476]	< 30
COc1cc(SC)ccc1C(C)CNc1cc(-c2ccc(N3CCN(C(C)=O)CC3)nc2)ncn1 (stereo not shown) [Compound 73]	< 30
CN1CCN(c2ccc(-c3cc(NCCc4ccccc4OC4CC4)ncn3)cn2)CC1 [Compound 87]	< 30
CNC(=O)c1ccnc2c([C@H](C)CNc3cc(-c4cncnc4)ncn3)cccc12 [Compound 605]	< 30
[2H]C([2H])([2H])NC(=O)c1ccnc2c([C@H](C)CNc3cc(-c4ccc(C)nc4)ncn3)cccc12 [Compound 549]	< 30
CNC(=O)c1ccc([C@H](C)CNc2cc(-c3cnc4c(c3)OCCN4C)ncn2)c(OC)c1 [Compound 490]	< 30
CCOc1ncc(-c2cc(NC[C@@H](C)c3ccc(F)c4c(C(=O)NC)ccnc34)ncn2)cn1 [Compound 652]	< 30

tested on: H2009; assay: Cell viability following irradiation (CellTiter-Glo); assay type: cell-based; settings: compound 2.1 μM + IR, 6 days, DMSO 7.6 Gy
Method: (§1) To evaluate the radiosensitizing effects of compounds of the invention in combination with ionizing radiation (IR), a broad panel of cell lines across multiple tumor types and genetic backgrounds were tested. Cells were incubated with DMSO or compound 578 for 30 minutes and then exposed to various doses of radiation (0, 0.5, 1, 2, 4, 6, 8, and 16 Gy). Cell viability was assessed at 6 days using CellTiter-Glo® (Promega, Inc).

EC50 IR [Gy]	SMILES
2.5	CNC(=O)c1ccnc2c([C@H](C)CNc3cc(-c4cnc(C)nc4)ncn3)cccc12 [Compound 578, (S)—N-methyl-8-(1-((2′-methyl-[4,5′-bipyrimidin]-6-yl)amino)propan-2-yl)quinoline-4-carboxamide]

tested on: DNA-PK null SCID mouse cell line; assay: as above; assay type: cell-based; settings: single agent or in combination with radiation
Method: as §1

SMILES	effect on cell viability
CNC(=O)c1ccnc2c([C@H](C)CNc3cc(-c4cnc(C)nc4)ncn3)cccc12 [Compound 578, (S)—N-methyl-8-(1-((2′-methyl-[4,5′-bipyrimidin]-6-yl)amino)propan-2-yl)quinoline-4-carboxamide]	minimal effect on cell viability
